For test [1], the target named is T1, acyl-CoA:cholesterol acyl transferase (ACAT) (Rattus norvegicus, UniProt Q7TQM4).
T1 construct: small intestine mucosal microsome fraction of a 6-week-old male Sprague-Dawley rat; from tissue; host or cells: rat small intestine mucosa, microsome fraction
T1 sequence (Q7TQM4 1-524): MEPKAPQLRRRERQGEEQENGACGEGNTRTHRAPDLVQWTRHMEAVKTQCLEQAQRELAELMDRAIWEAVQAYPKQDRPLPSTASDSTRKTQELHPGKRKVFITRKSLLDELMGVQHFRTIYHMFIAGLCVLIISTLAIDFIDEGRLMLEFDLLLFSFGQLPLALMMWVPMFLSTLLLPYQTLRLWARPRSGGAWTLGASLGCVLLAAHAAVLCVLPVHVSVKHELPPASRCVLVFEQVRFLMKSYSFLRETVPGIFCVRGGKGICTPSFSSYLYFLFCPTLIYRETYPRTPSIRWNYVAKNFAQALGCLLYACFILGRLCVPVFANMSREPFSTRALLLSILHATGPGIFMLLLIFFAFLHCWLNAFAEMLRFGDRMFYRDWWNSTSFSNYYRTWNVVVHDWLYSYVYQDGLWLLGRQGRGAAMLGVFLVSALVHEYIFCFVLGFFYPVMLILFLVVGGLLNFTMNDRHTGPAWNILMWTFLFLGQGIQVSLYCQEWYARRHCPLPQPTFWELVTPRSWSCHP
Description: Inhibitory action against acyl-CoA:cholesterol acyl transferase (ACAT), formation of labeled cholesterol ester, small intestine mucosal microsome fraction. Format: biochemical, male Sprague-Dawley rat. The note with it: 10^-6 M; read-out: ACAT Inhibitory Rate (%). Here is the method:
An ACAT enzyme preparation was prepared from a small intestine mucosal microsome fraction of a 6-week-old male Sprague-Dawley rat, previously fasted for 20 hours, in accordance with the method described by Heider et al. in the Journal of Lipid Research, Vol. 24, page 1127 (1982).
ACAT activity was determined by measuring the amount of labeled cholesterol ester produced from [1-^14 C]-oleoyl-CoA and endogenous cholesterol, in accordance with the method of Helgerud et al. [Journal of Lipid Research, Vol. 22, page 271 (1981)].

A short description of test [2]: Hypocholesterolemic activity (cholesterol-lowering activity) in hypercholesterolemic mice on high cholesterol-cholic acid diet. Format: in vivo, ICR mice. The note with it: vs control groups; for Reduction % HPL: heparin precipitating lipoproteins; for Reduction % cholesterol: serum. The protocol: Groups of 6 ICR mice (2 subgroups of 3 mice) were made hypercholesterolemic by being fed a high cholesterol-cholic acid diet for 7 days and administered with test compounds orally on the last two days. One-half of the total does was given on day 6 followed by the other half on day 7. After fasting overnight (16 hours after the last dose), the animals were sacrificed and sera were collected together for the each subgroup for measuring the levels of cholesterol and heparin precipitating lipoproteins (HPL). Both cholesterol and HPL levels were measured with autonalyzer by the enzymatic CHOD-PAP method for the former and by the turbidimetric method of Shurr et. al. [in C. E. Dau ed. Atherosclerosis Drug Discovery, Plenum Publishing, New York, pp. 215-229 & 231-249, 1976.] for the latter.

`COc1cccc(OC)c1NC(=O)Cc1c(-c2ccccc2C)c2cc(Cl)ccc2oc1=O` [Example 84, 6-Chloro-N-(2,6-dimethoxyphenyl)-4-(2-methylphenyl)-2-oxo-2H-1-benzopyran-3-acetamide]: the inhibition at 1 µM in test [1] came out at 99.5%. The entries for the “Reduction % HPL” value in test [2] (3 mg/kg po) and in test [2] (10 mg/kg po) were 28% and 47%, respectively. Besides, the Reduction % cholesterol in test [2] (3 mg/kg po) is given as 15%; in test [2] (10 mg/kg po), 33%.

On to `Cc1ccccc1-c1c(CC(=O)Nc2c(C(C)C)cccc2C(C)C)c(=O)oc2ccc(Cl)cc12` [Example 82, N-[2,6-Bis(1-methylethyl)phenyl]-6-chloro-4-(2-methylphenyl)-2-oxo-2H-1-benzopyran-3-acetamide], for which, in test [1], the inhibition at 1 µM is 99.3%. Further, in test [2] (3 mg/kg po), the “Reduction % HPL” value was determined as 37% and the Reduction % cholesterol is 31%. Also, in test [2] (10 mg/kg po), the “Reduction % HPL” value stood at 50% and the Reduction % cholesterol came out at 40%.

With `COc1ccccc1-c1c(CC(=O)Nc2c(OC)cccc2OC)oc(=O)c2ccccc12` [Example 74, N-(2,6-Dimethoxyphenyl)-4-(2-methoxyphenyl)-1-oxo-1H-2-benzopyran-3-acetamide], the inhibition at 1 µM in test [1] turned out to be 99.5%. Also, in test [2] (3 mg/kg po), the “Reduction % HPL” value was 32% and the Reduction % cholesterol was 29%. Further, in test [2] (10 mg/kg po), the “Reduction % HPL” value amounted to 37% and the Reduction % cholesterol is 33%.

As for `CC(C)c1cccc(C(C)C)c1NC(=O)Cc1oc(=O)c2ccc(Cl)cc2c1-c1ccccc1` [Example 48, N-[2,6-Bis(1-methylethyl)phenyl]-6-chloro-1-oxo-4-phenyl-1H-2-benzopyran-3-acetamide], in test [1], the inhibition at 1 µM stood at 99.2%. In addition, in test [2] (3 mg/kg po), the “Reduction % HPL” value came out at 26% and the Reduction % cholesterol came to 27%. Also, in test [2] (10 mg/kg po), the “Reduction % HPL” value came out at 39% and the Reduction % cholesterol is reported as 32%.

On to `CC(C)c1ccc2c(c1)[C@@H](c1ccc(F)cc1)[C@H](C(=O)Nc1c(C(C)C)cccc1C(C)C)C(=O)O2` (relative stereo) [Example 13, 3,4-trans-N-[2,6-Bis(1-methylethyl)phenyl]-4-(4-fluorophenyl)-3,4-dihydro-6-(1-methylethyl)-2-oxo-2H-1-benzopyran-3-carboxamide], for which, in test [1], the inhibition at 1 µM was found to be 93.8%.

For `CC(C)c1cccc(C(C)C)c1NC(=O)Cc1c(-c2ccccc2)c2cc(Cl)ccc2n(C)c1=O` [Example 45, N-[2,6-Bis(1-methylethyl)phenyl]-6-chloro-1,2-dihydro-1-methyl-2-oxo-4-phenyl-3-quinolineacetamide], the inhibition at 1 µM in test [1] is 99.5%.

Turning to `Cc1cccc(C(C)C)c1NC(=O)C[C@H]1C(=O)N(C)c2ccc(Cl)cc2[C@H]1c1ccccc1` (relative stereo) [Example 22, 3,4-cis-6-Chloro-1,2,3,4-tetrahydro-1-methyl-N-[2-methyl-6-(1-methylethyl)phenyl]-2-oxo-4-phenyl-3-quinolineacetamide], the inhibition at 1 µM in test [1] is 97.9%.

These data come from patent US5482967A, “Condensed heterocyclic compounds, their production and use” (Takeda Chemical Industries, Ltd., priority 1992, dated 1996).
